Measurements as given in patent publication US10800782B2, “Inhibitors of cellular metabolic processes” (Agios Pharmaceuticals, Inc., priority 2016, dated 2020).
pIC50: −log10 of the molar value.

Target: T1, MAT2A (Homo sapiens, UniProt P31153)
T1 construct: His6; made in house; host or cells: SF9 insect cells
Assay: MAT2A biochemical assay (colorimetric inorganic phosphate detection, PiColorLock)
Details: recombinant His6-tagged MAT2A 1 μg/ml; 60 minutes preincubation at 25° C.; L-Met 80 μM, ATP 100 μM; 60 minutes reaction; read at 623 nm; read-out: MAT2A Inhibition Score
Procedure, shortened: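 His6-tagged human MAT2A (SF9-expressed, 1 μg/ml) converting L-Met and ATP to SAM in Tris pH 8.0, 50 mM KCl, 15 mM MgCl2, 300 uM EDTA, 0.005% BSA; 60 min at room temperature. Released phosphate detected colorimetrically with malachite green phosphomolybdate. Ten-point, three-fold compound dilution series.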

T1 sequence (P31153 whole entry): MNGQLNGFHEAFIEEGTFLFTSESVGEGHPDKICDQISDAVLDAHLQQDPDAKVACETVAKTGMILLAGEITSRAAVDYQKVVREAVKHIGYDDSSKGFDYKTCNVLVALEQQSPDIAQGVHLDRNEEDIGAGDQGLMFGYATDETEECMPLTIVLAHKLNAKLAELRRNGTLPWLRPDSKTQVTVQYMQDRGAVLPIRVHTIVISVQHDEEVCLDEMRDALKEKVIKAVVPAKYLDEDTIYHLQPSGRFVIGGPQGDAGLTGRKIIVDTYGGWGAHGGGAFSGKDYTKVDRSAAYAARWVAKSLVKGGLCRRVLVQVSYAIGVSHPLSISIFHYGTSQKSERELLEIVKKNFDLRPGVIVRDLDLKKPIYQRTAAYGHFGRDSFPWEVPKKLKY

Q: How did the pIC50 turn out when COc1ccc(-c2c(C)[nH]c3c(N4CCC(F)(F)C4)c(-c4ccccc4)nn3c2=O)cc1 [Compound 272, 3-(3,3-difluoropyrrolidin-1-yl)-6-(4-methoxyphenyl)-5-methyl-2-phenylpyrazolo[1,5-a]pyrimidin-7(4H)-one] was run?
A: > 7.00

Q: Cc1[nH]c2c(-c3ccccc3)c(-c3ccccc3)nn2c(=O)c1-c1ccc2occc2c1 [Compound 334, 6-(benzofuran-5-yl)-5-methyl-2,3-diphenylpyrazolo[1,5-a]pyrimidin-7(4H)-one] was tested. Which pIC50 did it give?
A: 6.00 to 7.00

Q: With COc1ccc(-c2c(Nc3nnc(O)s3)[nH]c3c(-c4ccccc4)c(-c4ccccc4)nn3c2=O)cc1 [Compound 146, 5-((5-hydroxy-1,3,4-thiadiazol-2-yl)amino)-6-(4-methoxyphenyl)-2,3-diphenylpyrazolo[1,5-a]pyrimidin-7(4H)-one] as the compound, how does the pIC50 read?
A: > 7.00

Q: Cc1[nH]c2c(N3CCCCC3)c(-c3ccccc3)nn2c(=O)c1-c1cc[nH]c(=O)c1 [Compound 303, 5-methyl-6-(2-oxo-1,2-dihydropyridin-4-yl)-2-phenyl-3-(piperidin-1-yl)pyrazolo[1,5-a]pyrimidin-7(4H)-one] was tested. Which pIC50 did it give?
A: 5.00 to 6.00
